Measurements from patent publication US20240383906A1, “5-SUBSTITUTED PYRIDINE-2(1H)-KETONE COMPOUND AND USE THEREOF” (JIANGSU KANION PHARMACEUTICAL CO., LTD., priority 2021, published 2024).
Read-outs that look alike come from different tables or passages of the source.

Columns and labels:
[1] = tested on: WNT pathway STF reporter gene; assay: Super-Top-Flash (STF) reporter gene inhibitory activity test; format: cell-based; settings: HEK293 STF and L wnt3A cells 1:1, 24 hours, Bright-Glo
Experimental: HEK293 STF and L wnt3A cells were provided by Wuhan Heyan Biomedical Technology Co., Ltd., and Bright Glo was purchased from Promega.
• HEK293 STF and L wnt3A cells were seeded in a white 96-well plate at a ratio of 1:1, with 80 μL of cell suspension per well, each containing 20,000 HEK293 STF cells and 20,000 L wnt3A cells. The cell plate was placed in a carbon dioxide incubator for overnight culture.
The test compounds were 5-fold diluted with a multi-channel pipette to the 8th concentration, i.e., diluted from 400 μM to 5.12 nM, and duplicate experiment was set. 78 μL of culture medium was added to an intermediate plate, and then 2 μL of gradient diluted compound per well was transferred to the intermediate plate according to the corresponding position. After mixing well, the compound was transferred to the cell plate at 20 μL per well. The cell plate was placed in a carbon dioxide incubator and cultured for 24 hours.
100 μL of Promega Bright-Glo reagent was added to each well of the cell plate, and it was incubated at room temperature for 10 minutes to stabilize the luminescent signal. A multimode microplate reader was used for reading.
Using the raw data from the multimode microplate reader, the IC50 value could be obtained through curve fitting. Table 10 provides the data on the inhibitory activity of the compounds of the present disclosure on the Wnt signaling pathway.

Capan-2 cells = assay: Capan-2 cell anti-proliferative activity test; format: cell-based; settings: Homo sapiens, Capan-2, 120 h; 5 days, CellTiter-Glo
Experimental: Capan-2 cells were provided by Wuhan Heyan Biomedical Technology Co., Ltd., and CellTiter-Glo was purchased from Promega.
Capan-2 cells were seeded in a white 96-well plate, with 80 μL of cell suspension per well, each containing 5,000 Capan-2 cells. The cell plate was placed in a carbon dioxide incubator for overnight culture.
The test compounds were 3-fold diluted with a multi-channel pipette to the 9th concentration, i.e., diluted from 200 μM to 30 nM, and duplicate experiment was set. 78 μL of culture medium was added to an intermediate plate, and then 2 μL of gradient diluted compound per well was transferred to the intermediate plate according to the corresponding position. After mixing well, the compound was transferred to the cell plate at 20 μL per well. The cell plate was placed in a carbon dioxide incubator and cultured for 5 days. Another cell plate was prepared, and the signal value was read on the day of drug administration to serve as the maximum value (Max value in the equation below) for data analysis. 25 μL of cell viability chemiluminescence detection reagent was added to each well of this cell plate, and it was incubated at room temperature for 10 minutes to stabilize the luminescent signal. A multimode microplate reader was used for reading.
After the cell plate was cultured for 5 days, 25 μL of Promega CellTiter-Glo reagent was added to each well of the cell plate, and it was incubated at room temperature for 10 minutes to stabilize the luminescent signal. A multimode microplate reader was used for reading.
The IC50 value could be obtained through curve fitting, and the results of the inhibitory activity of the compounds of the present disclosure on the proliferation of Capan-2 cells are shown in Table 11.

[2] = Toxicological evaluation (with toxicokinetics) of rats administered for 21 consecutive days; settings: SD, rat, in vivo, po
Experimental: • SD rats (male and female, 7 to 8 weeks old, Zhejiang Vital River Laboratory Animal Technology Co., Ltd.).
• In this experiment, SD rats were administered orally once a day with a test substance, a candidate drug for treating cancer, for 21 days to detect its potential toxicity. At the same time, the toxicokinetic (TK) characteristics of the compound in the animals were examined.
126 rats (63 per gender) were divided into 6 groups. In the main test administration groups, each group had 5 males and 5 females. In the TK test control group, there were 3 males and 3 females. In the administration groups, each group had 6 males and 6 females. The compound was administered once a day at doses of 1, 3, 10, 20 milligrams per kilogram per day (mg/kg/day). The control group was only given the solvent. The volume of administration was 10 mL/kg. At the start of administration, the animals were 7 to 8 weeks old, with male weights ranging from 251.11 to 308.11 grams, and female weights from 181.53 to 219.03 grams.
The evaluation items include mortality (moribund/death), clinical symptoms, body weight, food consumption, clinical pathology (hematology, serum biochemistry, coagulation), gross (necropsy) evaluation, organ weights, histopathological evaluation, and toxicokinetics. The toxicokinetic parameters include peak concentration (Cmax), time to maximum drug concentration (Tmax), and area under the drug-time curve (AUC0-last).

[3] = female, 1 mg/kg/day, female, oral 1 mg/kg/day, Day 1
[4] = female, 1 mg/kg/day, female, oral 1 mg/kg/day, Day 21
[5] = female, 3 mg/kg/day, female, oral 3 mg/kg/day, Day 1
[6] = female, 3 mg/kg/day, female, oral 3 mg/kg/day, Day 21
[7] = female, 10 mg/kg/day, female, oral 10 mg/kg/day, Day 1
[8] = female, 10 mg/kg/day, female, oral 10 mg/kg/day, Day 21
[9] = female, 20 mg/kg/day, female, oral 20 mg/kg/day, Day 1
[10] = female, 20 mg/kg/day, female, oral 20 mg/kg/day, Day 21
[11] = male, 1 mg/kg/day, male, oral 1 mg/kg/day, Day 1
[12] = male, 1 mg/kg/day, male, oral 1 mg/kg/day, Day 21
[13] = male, 3 mg/kg/day, male, oral 3 mg/kg/day, Day 1
[14] = male, 3 mg/kg/day, male, oral 3 mg/kg/day, Day 21
[15] = male, 10 mg/kg/day, male, oral 10 mg/kg/day, Day 1
[16] = male, 10 mg/kg/day, male, oral 10 mg/kg/day, Day 21
[17] = male, 20 mg/kg/day, male, oral 20 mg/kg/day, Day 1
[18] = male, 20 mg/kg/day, male, oral 20 mg/kg/day, Day 21

Cn1cc(-c2cnc(CNc3nccn4c(-c5cc(F)cc(F)c5)cnc34)cn2)ccc1=O [Compound 2]
IC50 [1]: 0.23 nM | IC50 (Capan-2 cells): 6.07 nM | Cmax [2, 3]: 1.02 µM | Tmax [2, 3]: 4 h | AUC(0-t) ([2]; female, 1 mg/kg/day, female, oral 1 mg/kg/day, Day 1, read-out: AUC0-24 h): 14.5 µM·h | Cmax [2, 4]: 1.58 µM | Tmax [2, 4]: 8 h | AUC(0-t) ([2]; female, 1 mg/kg/day, female, oral 1 mg/kg/day, Day 21, read-out: AUC0-24 h): 25.6 µM·h | Cmax [2, 5]: 2.27 µM | Tmax [2, 5]: 8 h | AUC(0-t) ([2]; female, 3 mg/kg/day, female, oral 3 mg/kg/day, Day 1, read-out: AUC0-24 h): 33.2 µM·h | Cmax [2, 6]: 4.18 µM | Tmax [2, 6]: 8 h | AUC(0-t) ([2]; female, 3 mg/kg/day, female, oral 3 mg/kg/day, Day 21, read-out: AUC0-24 h): 63.8 µM·h | Cmax [2, 7]: 3.93 µM | Tmax [2, 7]: 4 h | AUC(0-t) ([2]; female, 10 mg/kg/day, female, oral 10 mg/kg/day, Day 1, read-out: AUC0-24 h): 77.7 µM·h | Cmax [2, 8]: 8.8 µM | Tmax [2, 8]: 8 h | AUC(0-t) ([2]; female, 10 mg/kg/day, female, oral 10 mg/kg/day, Day 21, read-out: AUC0-24 h): 144 µM·h | Cmax [2, 9]: 6.17 µM | Tmax [2, 9]: 8 h | AUC(0-t) ([2]; female, 20 mg/kg/day, female, oral 20 mg/kg/day, Day 1, read-out: AUC0-24 h): 101 µM·h | Cmax [2, 10]: 10.3 µM | Tmax [2, 10]: 8 h | AUC(0-t) ([2]; female, 20 mg/kg/day, female, oral 20 mg/kg/day, Day 21, read-out: AUC0-24 h): 179 µM·h | Cmax [2, 11]: 0.97 µM | Tmax [2, 11]: 8 h | AUC(0-t) ([2]; male, 1 mg/kg/day, male, oral 1 mg/kg/day, Day 1, read-out: AUC0-24 h): 12.5 µM·h | Cmax [2, 12]: 1.62 µM | Tmax [2, 12]: 8 h | AUC(0-t) ([2]; male, 1 mg/kg/day, male, oral 1 mg/kg/day, Day 21, read-out: AUC0-24 h): 22.4 µM·h | Cmax [2, 13]: 1.88 µM | Tmax [2, 13]: 8 h | AUC(0-t) ([2]; male, 3 mg/kg/day, male, oral 3 mg/kg/day, Day 1, read-out: AUC0-24 h): 23.1 µM·h | Cmax [2, 14]: 3.5 µM | Tmax [2, 14]: 8 h | AUC(0-t) ([2]; male, 3 mg/kg/day, male, oral 3 mg/kg/day, Day 21, read-out: AUC0-24 h): 50.1 µM·h | Cmax [2, 15]: 2.96 µM | Tmax [2, 15]: 4 h | AUC(0-t) ([2]; male, 10 mg/kg/day, male, oral 10 mg/kg/day, Day 1, read-out: AUC0-24 h): 47.4 µM·h | Cmax [2, 16]: 6.87 µM | Tmax [2, 16]: 8 h | AUC(0-t) ([2]; male, 10 mg/kg/day, male, oral 10 mg/kg/day, Day 21, read-out: AUC0-24 h): 110 µM·h | Cmax [2, 17]: 4.24 µM | Tmax [2, 17]: 8 h | AUC(0-t) ([2]; male, 20 mg/kg/day, male, oral 20 mg/kg/day, Day 1, read-out: AUC0-24 h): 76.6 µM·h | Cmax [2, 18]: 7.34 µM | Tmax [2, 18]: 8 h | AUC(0-t) ([2]; male, 20 mg/kg/day, male, oral 20 mg/kg/day, Day 21, read-out: AUC0-24 h): 123 µM·h
